From patent EP0099121A2, “Pharmaceutical compositions” (Bristol-Myers Company, priority 1982, dated 1984)

Each compound was assayed on Gastric Acid Output (assay: Gastric antisecretory activity in the Gastric Fistula Rat (Table 2 title: Two-Hour Pylorus Ligated Rat)). Conditions: Rattus norvegicus, ip; Route of Administration i.p.; numbers in parentheses are the 95% confidence limits; read-out: ED50.
Assay type: in vivo, Long Evans rats
Procedure: Male Long Evans rats weighing about 240-260 grams at the time of cannula implantation are used. The design and implantation of the stainless steel cannula into the anterior wall of the fore-stomach are carried out essentially as described by Pare et al. [Laboratory Animal Science, 27, 244 (1977)]. The fistula components are designed and the operative procedure is carried out exactly as described in the above reference. Post operatively the animals are individually housed in solid bottom cages with sawdust and are allowed food and water ad libitum throughout the entire recovery period. Animals are not used for test purposes for at least 15 days after the operative procedure.
The animals are fasted but allowed water ad libitum for 20 hours before the testing procedure is to begin. Immediately prior to collection, the cannula is opened and the stomach washed gently with 30-40 mL of warm saline or distilled water to remove any residual contents. The catheter is then screwed into the cannula in place of the plugging screw and the rat is placed in a clear plastic rectangular cage measuring 40 cm long, 15 cm wide and 13 cm high. The bottom of the cage has a slit approximately 1.5 cm wide and 25 cm long running down the center to accommodate the catheter which hangs through it. In this way the rat is not restricted and can move freely about the cage during collection periods. The remainder of the assay is carried out as described by Ridley et al. [Research Comm. Chem. Path. Pharm., 17, 365 (1977)].
Gastric secretions collected during the first hour after washing the stomach are discarded as they may be contaminated. For oral evaluation, the catheter is then removed from the cannula and replaced with the plugging screw. Water (2 mL/kg) is administered orally via gastric intubation and the animal is returned to the cage for 45 minutes. After this time the plugging screw is removed and replaced with a catheter to which a small plastic vial has been attached to collect the gastric secretions. A two hour sample is collected (this represents the control secretion), the catheter removed and replaced with the plugging screw. The test drug is now administered orally in a volume of 2 mL/kg via gastric intubation. Forty-five minutes later the plugging screw is again removed, replaced with the catheter attached to a small plastic vial and another 2 hour sample is collected. The secretions in the second sample are compared to those of the control sample in order to determine the effects of the test drug.
When test compounds are to be evaluated parenterally, the animal is injected ip or sc with the test compound vehicle in a volume of 2 mL/kg immediately after discarding the initial 60 minute collection. A two hour sample is collected (control secretion) and the animals are injected either ip or sc with the test compound in a volume of 2 mL/kg. An additional two hour sample is collected and its secretions are compared to those of the control period to determing drug effects.
The samples are centrifuged in a graduated tube for volume determination. Titratable acidity is measured by titrating a one mL sample to pH 7.0 with 0.02N NaOH, using an Autoburet and an electrometric pH meter (Radiometer). Titratable acid output is calculated in microequivalents by multiplying the volume in milliliters by the acid concentration in milliequivalents per liter.
Results are expressed as percent inhibition relative to control readings. Dose response curves are constructed and ED values are calculated by regression analyses. At least three rats are used at each dosage level and a minimum of three dosage levels are utilized for determination of a dose response curve.

Compound	ED50
Cc1[nH]cnc1CSCCNC1=NS(=O)(=O)N=C1NCCSCc1csc(N=C(N)N)n1 [Example 3, 3-{2-[(2-Guanidinothiazol-4-yl)methylthio]ethylanino}-4-{2-[(5-methyl-1H-imidazol-4-yl)methylthio]ethylamino}-1,2,5-thiadiazole 1,1-dioxide]	0.46 µmol/kg

Same assay, conditions: Rattus norvegicus, sc; Route of Administration s.c.; numbers in parentheses are the 95% confidence limits; read-out: ED50

Compound	ED50
CCCNC1=NS(=O)(=O)N=C1NCCSCc1ccc(CN(C)C)s1 [Example 108, 3-{2-[(5-Dimethylaminomethyl-2-thienyl)methylthio]ethylamino}-4-propylamino-1,2,5-thiadiazole 1,1-dioxide]	2.2 µmol/kg
CN(C)Cc1ccc(CSCCNC2=NS(=O)(=O)N=C2NCc2cccnc2)s1 [Example 110, 3-{2-[(5-Dimethylaminomethyl-2-thienyl)methylthio]ethylamino}-4-[(3-pyridyl)methylamino]-1,2,5-thiadiazole 1,1-dioxide]	0.05 µmol/kg
CNC1=NS(=O)(=O)N=C1NCCSCc1csc(N(C)C)n1 [Example 127, 3-{2-[(2-Dimethylaminothiazol-4-yl)methylthio]ethylamino}-4-methylamino-1,2,5-thiadiazole 1,1-dioxide]	> 10 µmol/kg
CN(C)Cc1ccc(CSCCNC2=NS(=O)(=O)N=C2NCc2ccc3c(c2)OCO3)s1 [Example 135, 3-{2-[(5-Dimethylaminomethyl-2-thienyl)methylthio]ethylamino}-4-(3,4-methylenedioxybenzylamino)-1,2,5-thiadiazole 1,1-dioxide]	0.57 µmol/kg
CN=C(NC)Nc1nc(CSCCNC2=NS(=O)(=O)N=C2NC)cs1 [Example 125, 3-Methylamino-4-{2-[(2-{2,3-dimethylguanidino)thiazol-4-yl)-methylthio]ethylamino}-1,2,5-thiadiazole 1,1-dioxide]	~10 µmol/kg
CNc1n[s+]([O-])nc1NCCSCc1csc(NC(=N)N)n1 (centres unmarked) [Example 115, 3-{2-[(2-Guanidinothiazol-4-yl)methylthio]ethylamino}-4-methylamino-1,2,5-thiadiazole 1-oxide]	0.57 µmol/kg
CN(C)Cc1ccc(CSCCNC2=NS(=O)(=O)N=C2O)o1 [Example 17, 3-{2-[(5-Dimethylaminomethyl-2-furyl)methylthio]ethylamino}-4-hydroxy^-1,2,5-thiadiazole 1,1-dioxide]	33 µmol/kg
CN(C)Cc1ccc(CSCCNC2=NS(=O)(=O)N=C2NO)o1 [Example 105, 3-{2-[(5-Dimethylaminomethyl-2-furyl)methylthio]ethy1arnino}-4-hydroxylamino-1,2,5-thiadiazole 1,1-dioxide]	1.65 µmol/kg
CNC1=NS(=O)(=O)N=C1NCCSCc1cnc(CN(C)C)s1 [Example 114, 3-{2-[(2-Dimethylaminomethylthiazol-5-yl)methylthio]-ethylamino}-4-methylamino-1,2,5-thiadiazole 1,1-dioxide]	~15 µmol/kg
CNC1=NS(=O)(=O)N=C1NCCSCc1cccc(CN(C)C)c1 [Example 90, 3-{2-[(3-{Dimethylaminomethyl}phenyl)methylthio]ethylamino}-4-methylamino-1,2,5-thiadiazole 1,1-dioxide]	0.86 µmol/kg
CNC1=NS(=O)(=O)N=C1NCCSCc1cnc(NC(=N)N)s1 [Example 95, 3-{2-[(2-Guanidinothiazol-5-yl)methylthio]ethylamino}-4-methylamino-1,2,5-thiadiazole 1,1-dioxide]	~15 µmol/kg
NC(N)=Nc1ncc(CSCCNc2n[s+]([O-])nc2N)s1 (centres unmarked) [Example 96, 3-Psnino-4-{2-[(2-guanidinothiazol-5-yl)methylthio]-ethylamino}-1,2,5-thiadiazole 1-oxide]	~15 µmol/kg
CN=C(NC)Nc1nc(CSCCNc2n[s+]([O-])nc2N)cs1 (centres unmarked) [Example 120, 3-Amino-4-{2-[(2-{2,3-dimethylguanidino}thiazol-4-yl)-methylthio]ethylamino}-1,2,5-thiadiazole I-oxide]	~5 µmol/kg
COCCNC1=NS(=O)(=O)N=C1NCCSCc1ccc(CN(C)C)o1 [Example 100, 3-{2-[(5-Dimethylaminomethyl-2-furyl)methylthio]ethylamino}-4-(2-methoxyethylamino)-1,2,5-thiadiazole 1,1-dioxide]	1.6 µmol/kg
CN(C)Cc1ccc(CSCCNC2=NS(=O)(=O)N=C2NCc2ccccn2)o1 [Example 104, 3-{2-[(5-Dimethylaminomethyl-2-furyl)methylthio]ethylamino}-4-[(2-pyridyl)methylamino]-1,2,5-thiadiazole 1,1-dioxide]	0.61 µmol/kg
CN(C)Cc1ncc(CSCCNc2n[s+]([O-])nc2N)s1 (centres unmarked) [Example 123, 3-Amino-4-{2-[(2-dimethylaminomethylthiazol-5-yl)methylthio]-ethylamino}-1,2,5-thiadiazole 1-oxide]	> 10 µmol/kg
CNC1=NS(=O)(=O)N=C1NCCCOc1cccc(CN2CCCCC2)c1 [Example 132, 3-Methylamino-4-{3-(3-piperidinomethylphenoxy)propylamino] - 1,2,5-thiadiazole 1,1-dioxide]	0.025 µmol/kg
CN(C)Cc1nc(CSCCNC2=NS(=O)(=O)N=C2N)cs1 [Example 94, 3-A-mino-4-{2-[(2-dinethylaminomethyl-4-thiazolyl)methylthio)-ethylamino}-1,2,5-thiadiazole 1,1-dioxide]	0.44 µmol/kg
N=C(N)Nc1nc(CSCCNc2n[s+]([O-])nc2NCCSCc2csc(NC(=N)N)n2)cs1 (centres unmarked) [Example 121, 3,4-Bis-{2-[(2-guanidinothiazol-4-yl)methylthio]ethylamino}-1,2,5-thiadiazole 1-oxide]	0.19 µmol/kg
C#CCN(C)Cc1ccc(CSCCNC2=NS(=O)(=O)N=C2NC)o1 [Example 14, 3-Methylamino-4-{2-[(5-([N-methyl-N-(2-propynyl)amino]-methyl}-2-furyl)methylthio]ethylamino}-12,5-thiadiazole 1,1-dioxide]	~25 µmol/kg
CN(C)Cc1ccc(CSCCNC2=NS(=O)(=O)N=C2NC2CC2)o1 [Example 97, 3-Cyclopropylamino-4-{2-[(5-dimethylaminomethyl-2-furyl)-methylthio]ethylamino}-1,2,5-thiadiazole 1,1-dioxide]	~3 µmol/kg
CN(C)Cc1ccc(CSCCNC2=NS(=O)(=O)N=C2N)s1 [Example 111, 3-Amino-4-{2-[(5-dimethylaminomethyl-2-thienyl)methylthio]-ethylamino}-1,2,5-thiadiazole 1,1-dioxide]	0.64 µmol/kg
CONC1=NS(=O)(=O)N=C1NCCSCc1ccc(CN(C)C)o1 [Example 107, 3-{2-[(5-Dimethylaminomethyl-2-furyl)methylthio]ethylamino}-4-methoxyamino-1,2,5-thiadiazole 1,1-dioxide]	23 µmol/kg
CN(C)Cc1ccc(CSCCNC2=NS(=O)(=O)N=C2NN)o1 [Example 51]	55 µmol/kg
CCCNC1=NS(=O)(=O)N=C1NCCSCc1ccc(CN(C)C)o1 [Example 85, 3-{2-[(5-Dimethylaminomethyl-2-furyl)methylthio]ethylamino}-4-propylamino-1,2,5-thiadiazole 1,1-dioxide]	0.14 µmol/kg
C#CCNC1=NS(=O)(=O)N=C1NCCSCc1ccc(CN(C)C)o1 [Example 13, 3-{2-[(5-Dimethylaminomethyl-2-furyl)methvlthio]ethyl-amino}-4-(2-proynyl)amino-1,2,5-thiadiazole 1,1-dioxide]	0.46 µmol/kg
Nc1n[s+]([O-])nc1NCCSCc1ccc(CN2CCCCC2)o1 (centres unmarked) [Example 151, 3-Amino-4-{2-.[(5-piperidinomethyl-2-furyl)methylthio]-ethylamino)-1,2,5-thiadiazole 1-oxide]	0.9 µmol/kg

Same assay, conditions: Route of Administration s.c.; numbers in parentheses are the 95% confidence limits

Compound	ED50
CNC1=NS(=O)(=O)N=C1NCCCOc1cccc(CN2CCC(C)CC2)c1 [144 b]	0.025 (0.0087-0.065) μmoles/kg
3-{2-[(5-Dimethylaminomethyl-2-furyl)methylthio]ethyl- amino}-4-dinethylamino-1,2,5-thiadiazole 1,1-dioxide [Example 28]	1.39 (0.39-4.91) μmoles/kg
3-{2-[(5-Dimethylaminomethyl-2-furyl)methylthio]-ethylamino}-4-pieridino-1,2,5-thiadiazole 1,1-dioxide [Example 102]	~15 µmol/kg
CNC1=NS(=O)(=O)N=C1NCCCOc1cccc(CN2CCOCC2)c1 [144 d]	0.91 (0.36-3.2) μmoles/kg
